Reference: the pKa sets of Baltruschat and Czodrowski (2020)

Details: acidic group

Compound | pKa
O=C1NC(=O)c2ccccc21 | 9.91
O=C([O-])CNC(=O)c1cccc(O)c1O | 7.7
O=C([O-])C1(C(=O)O)CCCC1 | 6.08
OC(C[S-])CS | 10.7
CC/C=C/CC(=O)N[C@H]1C(=O)N2[C@H]1SC(C)(C)[C@H]2C(=O)O | 2.84
COCc1ccccc1C(=O)O | 3.85
O=C([O-])/C=C\c1ccccc1O | 10.7
Cc1[nH]c(-c2ccccc2S)[nH+]c1C | 3.9
CCCc1ncnc2c(O)cccc12 | 8.82
O=[PH]([O-])C(NCc1ccccn1)c1ccccc1O (centres undefined) | 12
O=S(=O)(Nc1cccc(C(F)(F)F)c1)C(F)(F)F | 3.5
OCC[NH+](CCc1nnn[nH]1)CCc1nnn[nH]1 | 4.23
Oc1nc2ccccc2c[nH+]1 | 1.3
CC#CC#CC=C=C[C@@H](O)CCC(=O)O | 4.9
O=C(O)[C@@H]1CCCN1C(=O)[C@@H]1CCC[NH2+]1 | 3.16
[O-][n+]1cccc(O)c1 | 6.4
Cc1[nH]c2ccccc2c1C(=O)O | 5.89
COc1nc(-n2nc(C)cc2O)nc(C)c1C | 7.64
CCCCNc1ncnc2[nH]ncc12 | 11.2
CCOc1cccc(C(=O)O)c1C | 3.73
O/N=C/c1ccccn1 | 10.1
Cc1ncnc2nc[nH]c12 | 9.21

Compound | pKa
O=C(O)c1cccc([N+](=O)[O-])c1C(=O)c1ccccc1 | 2.87
O=[N+]([O-])c1cccc(NS(=O)(=O)c2ccccc2)c1 | 6.91
CN(C)c1nc(/N=N/O)nn1C | 5.94
N#CC(C#N)=NNc1ccc(CCCl)cc1 | 6.5
Cc1cc(/N=N/c2ccc(S(N)(=O)=O)cc2)cc(C(=O)O)c1O | 2.25
O=C(O)c1c(Cl)cccc1[N+](=O)[O-] | 1.41
Cc1ccc(Br)c(C(=O)O)c1 | 3
Oc1c(Br)cc(Br)c2cccnc12 | 7.3
COC(=O)[n+]1ccc(C)cc1 | 6.15
CCCCN(C(=O)c1ccc(O)cc1)c1ccc(/N=N/c2ccc3c(c2)OCCOCCOCCOCCOCCO3)cc1 | 9.12
c1ccc(Nc2nnn[nH]2)cc1 | 6.3
CC(=O)N(O)c1ccccc1 | 8.36
O=C(CC(=O)c1ccccc1)Nc1ccccc1 | 9.54
CC(=O)c1ccc(CC(=O)O)s1 | 3.8
C[n+]1cc(O)ccn1 | 1.74
[NH3+]CCCCC(=O)O | 4.26
C[NH+](C)Cc1c(O)c(O)c(O)c(C[NH+](C)C)c1C(=O)[O-] | 6.95
C[Si](C)(C)CCC(=O)O | 4.91
OB(O)c1ccccc1 | 8.74
c1ccc(-c2cn[nH]c2)cc1 | 13.6
Cc1ccc(C(=O)O)c(C)c1 | 4.18
Clc1ccc2[nH]nnc2c1 | 7.7

Compound | pKa
O=C(/C=N/O)/C=N/O | 7.65
Cc1cc(C(=O)O)ccc1O | 4.68
OCc1ccccc1O | 9.92
O=C(OCc1ccccc1)c1ccc(O)cc1 | 8.31
Nc1c([O-])cccc1O | 11.6
CC(=O)CC=O | 6.12
Cn1c([O-])nc2nc[nH]c2c1=O | 11.9
Cn1cnc2[nH]c(=O)[nH]c(=S)c21 | 6.8
[NH3+]CCCCCCNC(=S)S | 2.95
[NH-]S(=O)(=O)c1nnc(Nc2ccccc2)s1 | 11.1
O=C(O)c1ccoc1 | 3.94
COc1cc2ccc(=O)oc2cc1O | 6.5
CC(C)c1ccc2c(c1)CC[C@H]1[C@](C)(C(=O)O)CCC[C@]21C | 5.7
[O-]c1cccc2c1-c1c(O)cccc1-2 | 11
Oc1ccc2cc(Cl)ccc2c1 | 9.31
Oc1onc2c1CC[NH2+]CC2 | 3.3
Cc1cc2ccccc2c(C(=O)O)c1C | 3.33
O=C(O)c1cc(Br)cs1 | 3.11
CC(=O)[C@H]1CC=CC[C@@H]1C(=O)O | 4.4
O=C(S)c1ccccc1 | 2.44
CC(C)CCP(=O)(O)CCC(C)C | 3.26
NC(=O)CS | 8.22

Compound | pKa
Cc1ccc(O)c([O-])c1 | 13.3
Cn1ncnc1/N=N/O | 4.45
Nc1ccc(S(=O)(=O)Nc2cccnc2)cc1 | 7.89
Cc1cc(C)nc(NS(=O)(=O)c2ccc(N)cc2)n1 | 7.44
O=C(O)[C@@H]1CC[C@H](C(=O)O)S1 | 3.34
CC#CC(=O)O | 2.63
Oc1ccc2cccc(Br)c2c1 | 8.94
COC(=O)[n+]1ccc(N)cc1 | 9.15
C[NH+](C)Cc1cc(Br)ccc1O | 7.58
S=c1[nH]c2cc3c(cc2[nH]1)CCCC3 | 10.4
CC(=O)C(C(C)=O)C(C)C | 12.8
O=P1(O)CCC1 | 3.07
CN(C)c1ccc(C(=O)O)cc1 | 4.96
CCCOc1ccc(C(=O)O)cc1 | 4.63
O=C1c2ccccc2C(=O)C1Cc1ccccc1 | 5.9
COc1ccc(C=O)cc1O | 8.89
O=C1CCc2cc(I)ccc2C1 | 12.4
C[N+](C)(C)NC(=O)c1cccc([N+](=O)[O-])c1 | 3.16
O=C([O-])CCc1nc2ccccc2[nH]1 | 13.1
O=C1NC(=O)[C@H](CSSC[C@@H]2NC(=O)NC2=O)N1 | 8.1
[NH3+]CCCCCC(=O)O | 4.37
Cc1ccc(C(=O)O)cc1C | 4.41

Same assay, conditions: basic group

Compound | pKa
CC[NH+](CCO)c1ccc(N)cc1 | 3.04
O=C(CCCN1CCC(O)(c2ccccc2)CC1)c1ccccc1 | 8.4
O=C([O-])CN(CC(=O)[O-])Cc1cc([N+](=O)[O-])ccc1[O-] | 10.2
NCc1ccc(O)c(O)c1 | 8.6
COc1ccc(S(=O)(=O)NCCCN2CCOCC2)c(OC)c1OC | 6.76
CCN(CC)CCNc1nc(C)cc(N)n1 | 9.8
CNCCNC | 10.1
O=C1N[C@@H](Cc2c[nH+]c[nH]2)C(=O)N[C@H]1Cc1cnc[nH]1 | 5.56
CC(N)c1ccccc1 (centres undefined) | 9.36
Nc1n[nH]c2ccccc12 | 3.15
O=[PH]([O-])C(NCc1ccccn1)c1ccccc1O (centres undefined) | 8.08
CC(C=C(c1cccs1)c1cccs1)N(C)C (centres undefined) | 8.95
Cc1ccccc1/C(=N/CCC[NH+](C)C)c1ccccc1 | 4.29
CCCCSCCN | 8.37
CC[NH+](CC)CCNc1nc(C)cc(N)n1 | 6.97
CCc1ccnc2c1ccc1c(CC)ccnc12 | 5.6
CN(C(=O)c1ccccc1)c1ccccn1 | 1.44
[O-]c1ccnc([O-])c1 | 13
C[C@@H](N)C(=O)N1CCC[C@H]1C(=O)[O-] | 8.38
C[NH+](C)CCCCNc1c2ccccc2nc2cccc([N+](=O)[O-])c12 | 6.9
Nc1ccc2nnc3ccccc3c2c1 | 6.68
NCC/C(N)=N/O | 9.15
CCCCNc1ncnc2[nH]ncc12 | 4.67

Compound | pKa
CC(C)(C)NCCO | 10.1
O/N=C/c1ccccn1 | 3.4
Cc1ncnc2nc[nH]c12 | 2.6
COc1ccc2c(c1)C(O)N(C)C=C2 (centres undefined) | 2.15
O=C([O-])[C@@H]1O[C@H](Oc2cnc3ccccc3c2)[C@@H](O)[C@H](O)[C@H]1O | 3.95
NC(=O)CC(=O)c1cccnc1 | 8.61
C=CC(=O)NC(C)(C)CCN(CC)CC | 10.1
N#CC(C#N)=NNc1ccc(CCCl)cc1 | -0.81
CCNc1ccc(C)cc1 | 5.72
COc1ccc(-c2cn3cccnc3n2)c(OC)c1 | 4.34
c1cc(-c2ccncc2)ccn1 | 4.82
Oc1c(Br)cc(Br)c2cccnc12 | 2.6
CC(C=C(c1cccs1)c1cccs1)N1CCCCCCC1 (centres undefined) | 7.52
Cn1ccc(=N)cc1 | 12.5
Nc1c2ccccc2nc2cccc([N+](=O)[O-])c12 | 7.3
Oc1ccccc1CN1CCCNCCC[NH2+]CCC1 | 6.64
CCN(C)c1ccccc1 | 6.02
CCOc1cccc(N)c1 | 4.15
Cc1noc(C)c1C | -1
Nc1ccccc1Br | 2.4
Cc1ccnc([S-])[nH+]1 | 2.2
Cc1ccn(-c2ccccn2)n1 | 1.36
CCc1cc(-c2ccccc2)nnc1NCCN1CCOCC1 | 7.08

Compound | pKa
CCNc1cccc2ccccc12 | 4.19
CCCCCN(CCO)CC(O)CC (centres undefined) | 9.1
OCCNc1ccccc1 | 4.09
CNO | 6.05
C=C(C)[C@H]1CN[C@H](C(=O)[O-])[C@H]1CC(N)=O | 9.47
Cc1cnc(C)c(C)[nH+]1 | -3.6
O=C([O-])C1CSCN1 (centres undefined) | 6.23
Cn1cnc2[nH]c(=O)[nH]c(=S)c21 | 0.3
CCCCCCCCCCCCCCCCCc1c2ccccc2nc2ccccc12 | 5.5
Nc1ccc(Br)cc1Br | 2.3
O=C(O)c1ccoc1 | -0.59
N/N=C/c1ncnc2nc[nH]c12 | 9.2
NCC(N)=S | 7.27
NC1Cc2ccccc2C1 | 9.55
CC[NH+](CC)CCCC(C)Nc1ccnc2ccccc12 (centres undefined) | 8.81
CCN(CC)CCCC#N | 9.29
CC(C)(C)c1cc(O)[nH]n1 | 2.9
CCN1CCCC1CNS(=O)(=O)c1ccc(OC)c(OC)c1OC (centres undefined) | 8.7
NCc1cccc(O)c1O | 8.3
CC(C)S(=O)(=O)n1c(N)nc2ccc(/C(=C/C(N)=O)c3cc(F)ccc3F)cc21 | 3.4
[NH3+]CCNCCO | 6.66
NCCNCCCO | 9.67
CN(C)c1ccc2c(c1)Sc1cc([NH+](C)C)ccc1N2 | 5.27

Compound | pKa
NC(=O)CN(CC[NH+](CC(N)=O)Cc1ccccc1O)Cc1ccccc1O | 1.89
COc1cc(OS(C)(=O)=O)ccc1-c1cn2cccnc2n1 | 3.95
Cc1cc(C)cc(C(=N)c2ccccc2)c1 | 6.82
CC(C)(N)C(C)(C)N | 10.1
Cc1ccc(N)cc1-c1cc(N)ccc1C | 5
CC(C)[C@H]1CC[C@H](C)C[C@@H]1N | 10.6
CN(CC[NH+](C)C)CC[NH+](C)C | 2.57
Nc1ccc(S(=O)(=O)Nc2cccnc2)cc1 | 3
Cc1cc(C)nc(NS(=O)(=O)c2ccc(N)cc2)n1 | 2.35
CON | 4.62
Cc1ccccc1NC1CCCC1 | 5.07
NC(CCc1ccc([N+](=O)[O-])cc1)C(=O)[O-] (centres undefined) | 9.1
Cn1ccc(=S)c2ccccc21 | 0.56
CN(C)c1ccc(C(=O)O)cc1 | 2.57
O=C(CCCN1CCOCC1)c1ccccc1 | 7.26
NCCc1cnc[nH]1 | 9.4
Cc1ccccc1N(C)C | 6
C1N2CN3CN1C[NH+](C2)C3 | -1.7
O=C([O-])CCc1nc2ccccc2[nH]1 | 5.7
Cc1cc(-c2ccccc2)nnc1NCC[NH+]1CCOCC1 | 4
NCc1ccc(N)cc1 | 10
Nc1cccc2ncncc12 | 3.57
